Measurements taken from patent publication US6630501B1, “Phosphinic pseudo-peptides that may be used as matrix zinc metalloprotease inhibitors” (Commissariat a l'energie Atomique, priority 1999, dated 2003).

Legend:
MMP-9 (Gel-B) = biological target: T1, MMP-9 (Gel-B) (Homo sapiens, UniProt P14780); test: Ki determination with fluorogenic synthetic substrates, recombinant MMP-9; format: biochemical; conditions: for Ki: Tris/50 mM HCl buffer, pH 6.8, 10 mM CaCl2, 25° C., read-out: affinity constant Ki, MMP-9 Gel-B
T1 construct: made in house; host or cells: E. coli
Procedure: (§1) The MMPs used were produced in recombinant form, in an E. coli expression system, and then purified using different types of chromatographies. Apart from stromelysin-3 (MMP-11), the MMPs produces correspond to human sequences. The Stromelysin-3 used in this study corresponds to the murine form.
(§2) The activity of each MMP was determined using two fluorogenic synthetic substrates. The cutoff of said substrates, which generates a fluorescent signal proportional to the quantity of split substrate, enables a precise determination of the kinetic parameters. The affinity constants Ki were calculated using the equation of Horowitz et al, Proc. Natl. Acad. Sci. USA, 1987, 84, p. 6654-6658 [14], accounting for the dependency of the percentage of inhibition measured experimentally according to the concentration of inhibitor, as a function of the enzyme and substrate concentration.
(§3) The experiments for conducted in a Tris/50 mM HCl buffer, pH 6.8, 10 mM CaCl2, 25° C.

[1] = biological target: T2, MMP-11 (stromelysin-3, mST3) (Mus musculus, UniProt Q02853); test: Ki determination with fluorogenic synthetic substrates, recombinant MMP-11; format: biochemical, murine; conditions: for Ki: Tris/50 mM HCl buffer, pH 6.8, 10 mM CaCl2, 25° C., read-out: affinity constant Ki, MMP-11 mST3
T2 construct: made in house; host or cells: E. coli
T2 sequence (Q02853 102-492): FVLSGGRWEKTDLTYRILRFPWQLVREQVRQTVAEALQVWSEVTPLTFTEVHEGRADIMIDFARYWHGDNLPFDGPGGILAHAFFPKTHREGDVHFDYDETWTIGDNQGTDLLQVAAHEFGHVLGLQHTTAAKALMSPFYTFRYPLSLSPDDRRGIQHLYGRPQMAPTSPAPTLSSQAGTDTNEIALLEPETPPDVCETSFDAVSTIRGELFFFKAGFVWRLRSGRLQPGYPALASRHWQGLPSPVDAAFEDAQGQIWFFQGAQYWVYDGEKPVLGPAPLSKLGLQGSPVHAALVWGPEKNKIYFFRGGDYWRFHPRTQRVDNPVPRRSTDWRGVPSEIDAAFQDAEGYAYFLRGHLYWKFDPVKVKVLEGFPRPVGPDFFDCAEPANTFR
Procedure: as §1, §2, §3

MMP-14 (MT1-MMP) = biological target: T3, MMP-14 (MT1-MMP) (Homo sapiens, UniProt P50281); test: Ki determination with fluorogenic synthetic substrates, recombinant MMP-14; format: biochemical; conditions: Tris/50 mM HCl buffer, pH 6.8, 10 mM CaCl2, 25° C.; read-out: affinity constant Ki, MMP-14 MT1-MMP
T3 construct: made in house; host or cells: E. coli
Procedure: as §1, §2, §3

MMP-8 (HNC) = biological target: T4, MMP-8 (HNC) (Homo sapiens, UniProt P22894); test: Ki determination with fluorogenic synthetic substrates, recombinant MMP-8; format: biochemical; conditions: for Ki: Tris/50 mM HCl buffer, pH 6.8, 10 mM CaCl2, 25° C., read-out: affinity constant Ki, MMP-8 HNC
T4 construct: made in house; host or cells: E. coli
Procedure: as §1, §2, §3

MMP-2 (Gel-A) = biological target: T5, MMP-2 (Gel-A) (Homo sapiens, UniProt P08253); test: Ki determination with fluorogenic synthetic substrates, recombinant MMP-2; format: biochemical; conditions: for Ki: Tris/50 mM HCl buffer, pH 6.8, 10 mM CaCl2, 25° C., read-out: affinity constant Ki, MMP-2 Gel-A
T5 construct: made in house; host or cells: E. coli
T5 sequence (P08253 110-660): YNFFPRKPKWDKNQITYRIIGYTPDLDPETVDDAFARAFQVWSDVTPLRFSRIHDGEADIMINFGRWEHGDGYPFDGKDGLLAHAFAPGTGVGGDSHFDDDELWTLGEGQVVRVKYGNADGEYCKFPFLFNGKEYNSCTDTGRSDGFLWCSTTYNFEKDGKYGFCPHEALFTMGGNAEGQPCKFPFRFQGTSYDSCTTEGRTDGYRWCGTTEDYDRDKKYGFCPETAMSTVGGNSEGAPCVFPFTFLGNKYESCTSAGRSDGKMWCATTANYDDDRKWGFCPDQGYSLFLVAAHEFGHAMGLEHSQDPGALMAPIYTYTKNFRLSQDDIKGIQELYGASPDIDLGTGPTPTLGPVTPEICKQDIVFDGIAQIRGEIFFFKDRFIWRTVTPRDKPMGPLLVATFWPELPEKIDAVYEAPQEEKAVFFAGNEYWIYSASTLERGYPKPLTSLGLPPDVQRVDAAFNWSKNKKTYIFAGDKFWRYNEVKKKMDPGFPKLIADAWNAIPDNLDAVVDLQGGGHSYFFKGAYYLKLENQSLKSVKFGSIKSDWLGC
Procedure: as §1, §2, §3

MMP-1 (HFC) = biological target: T6, MMP-1 (HFC) (Homo sapiens, UniProt P03956); test: Ki determination with fluorogenic synthetic substrates, recombinant MMP-1; format: biochemical; conditions: for percentage of inhibition, MMP-1: @ 2 mM inhibitor; for inhibition at 1 µM: @ 1 μM inhibitor, read-out: percentage of inhibition, MMP-1
T6 construct: made in house; host or cells: E. coli
T6 sequence (P03956 100-469): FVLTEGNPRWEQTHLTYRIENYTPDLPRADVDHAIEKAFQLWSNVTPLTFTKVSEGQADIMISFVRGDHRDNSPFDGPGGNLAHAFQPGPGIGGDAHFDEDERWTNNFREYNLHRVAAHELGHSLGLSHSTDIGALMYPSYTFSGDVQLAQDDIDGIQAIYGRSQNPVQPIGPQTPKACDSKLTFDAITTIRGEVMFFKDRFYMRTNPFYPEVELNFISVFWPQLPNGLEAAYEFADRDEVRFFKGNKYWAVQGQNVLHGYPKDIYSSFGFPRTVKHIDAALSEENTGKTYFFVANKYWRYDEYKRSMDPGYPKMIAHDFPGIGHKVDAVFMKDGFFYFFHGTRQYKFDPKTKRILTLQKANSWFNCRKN
Procedure: as §1, §2, §3

MMP-7 (Matrilysin) = biological target: T7, MMP-7 (Matrilysin) (Homo sapiens, UniProt P09237); test: Ki determination with fluorogenic synthetic substrates, recombinant MMP-7; format: biochemical; conditions: for percentage of inhibition, MMP-7: @ 50 mM inhibitor; for Ki: Tris/50 mM HCl buffer, pH 6.8, 10 mM CaCl2, 25° C., read-out: affinity constant Ki, MMP-7 Matrilysin; for inhibition at 1 µM: @ 1 μM inhibitor, read-out: percentage of inhibition, MMP-7
T7 construct: made in house; host or cells: E. coli
T7 sequence (P09237 95-267): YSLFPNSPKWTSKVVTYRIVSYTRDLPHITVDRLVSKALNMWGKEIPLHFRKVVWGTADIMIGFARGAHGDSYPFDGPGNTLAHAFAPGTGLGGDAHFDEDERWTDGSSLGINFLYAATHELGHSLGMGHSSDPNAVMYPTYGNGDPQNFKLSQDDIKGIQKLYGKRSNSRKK
Procedure: as §1, §2, §3

T1 sequence (P14780 94-707): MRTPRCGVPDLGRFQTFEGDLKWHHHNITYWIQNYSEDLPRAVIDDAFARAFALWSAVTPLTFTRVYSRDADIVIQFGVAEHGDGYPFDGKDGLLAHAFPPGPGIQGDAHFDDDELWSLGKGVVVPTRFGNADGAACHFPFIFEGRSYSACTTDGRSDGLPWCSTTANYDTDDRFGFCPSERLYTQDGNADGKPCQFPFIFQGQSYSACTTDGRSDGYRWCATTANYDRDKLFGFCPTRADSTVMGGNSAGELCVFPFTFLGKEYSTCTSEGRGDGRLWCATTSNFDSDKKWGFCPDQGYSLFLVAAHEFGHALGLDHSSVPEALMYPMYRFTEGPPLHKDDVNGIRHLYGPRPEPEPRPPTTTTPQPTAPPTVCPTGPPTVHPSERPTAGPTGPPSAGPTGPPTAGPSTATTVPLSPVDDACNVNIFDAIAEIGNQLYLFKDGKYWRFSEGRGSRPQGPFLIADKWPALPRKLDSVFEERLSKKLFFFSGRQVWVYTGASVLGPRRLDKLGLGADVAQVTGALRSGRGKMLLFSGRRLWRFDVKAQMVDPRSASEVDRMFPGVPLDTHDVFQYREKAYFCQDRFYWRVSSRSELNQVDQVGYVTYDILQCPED
T4 sequence (P22894 101-467): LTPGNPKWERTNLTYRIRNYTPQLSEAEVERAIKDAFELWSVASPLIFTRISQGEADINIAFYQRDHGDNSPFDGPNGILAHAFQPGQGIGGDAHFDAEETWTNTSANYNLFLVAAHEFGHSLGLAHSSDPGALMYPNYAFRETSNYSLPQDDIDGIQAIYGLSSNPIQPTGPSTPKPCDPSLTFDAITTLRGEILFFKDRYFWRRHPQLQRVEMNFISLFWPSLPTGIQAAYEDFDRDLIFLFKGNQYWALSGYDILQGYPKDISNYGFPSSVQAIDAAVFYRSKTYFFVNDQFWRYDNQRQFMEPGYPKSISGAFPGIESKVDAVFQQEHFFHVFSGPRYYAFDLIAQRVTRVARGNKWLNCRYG

| SMILES | inhibitory power on MMP-9, in words (MMP-9 (Gel-B)) | Ki (MMP-9 (Gel-B)) | inhibitory power on MMP-11, in words [1] | Ki [1] | Ki (MMP-14 (MT1-MMP)) | inhibitory power on MMP-8, in words (MMP-8 (HNC)) | Ki (MMP-8 (HNC)) | inhibitory power on MMP-2, in words (MMP-2 (Gel-A)) | Ki (MMP-2 (Gel-A)) | percentage of inhibition, MMP-1 (MMP-1 (HFC)) | percentage of inhibition, MMP-7 (MMP-7 (Matrilysin)) | inhibition at 1 µM (MMP-1 (HFC)) | Ki (MMP-7 (Matrilysin)) | inhibition at 1 µM (MMP-7 (Matrilysin)) |
| --- | --- | --- | --- | --- | --- | --- | --- | --- | --- | --- | --- | --- | --- | --- |
| COc1ccc(CSCC(CP(=O)(O)C(Cc2ccccc2)NC(=O)OCc2ccccc2)C(=O)NC(Cc2c[nH]c3ccccc23)C(N)=O)cc1 (centres unmarked) [Compound 18] | very powerful inhibitor | 3 nM | very powerful inhibitor | 2 nM | 22 nM | very powerful inhibitor | 0.7 nM | very powerful inhibitor | 6 nM | 13% @ 2 mM | 84% @ 50 mM |  |  |  |
| CC(C)CC(CP(=O)(O)C(Cc1ccccc1)NC(=O)OCc1ccccc1)C(=O)NC(Cc1c[nH]c2ccccc12)C(N)=O (centres unmarked) [Compound 13] |  | 65 nM |  | 22 nM | 192 nM |  | 40 nM |  | 202 nM | 45% @ 2 mM |  |  | 210 nM |  |
| NC(=O)C(Cc1c[nH]c2ccccc12)NC(=O)C(CCCCc1ccccc1)CP(=O)(O)C(Cc1ccccc1)NC(=O)OCc1ccccc1 (centres unmarked) [Compound 16] |  | 70 nM |  | 33 nM | 580 nM |  | 4.3 nM |  | 145 nM | 5% @ 2 mM | 65% @ 50 mM |  |  |  |
| NC(=O)C(Cc1c[nH]c2ccccc12)NC(=O)C(CCCc1ccccc1)CP(=O)(O)C(Cc1ccccc1)NC(=O)CNc1cccc(Cl)c1 (centres unmarked) [Compound 28] |  | 6 nM |  | 3.8 nM | 45 nM |  | 4 nM |  | 9 nM |  |  | 63% |  | 25% |

Second part, the molecule after the results:

| inhibitory power on MMP-9, in words (MMP-9 (Gel-B)) | Ki (MMP-9 (Gel-B)) | inhibitory power on MMP-11, in words [1] | Ki [1] | Ki (MMP-14 (MT1-MMP)) | inhibitory power on MMP-8, in words (MMP-8 (HNC)) | Ki (MMP-8 (HNC)) | inhibitory power on MMP-2, in words (MMP-2 (Gel-A)) | Ki (MMP-2 (Gel-A)) | percentage of inhibition, MMP-1 (MMP-1 (HFC)) | percentage of inhibition, MMP-7 (MMP-7 (Matrilysin)) | inhibition at 1 µM (MMP-1 (HFC)) | Ki (MMP-7 (Matrilysin)) | inhibition at 1 µM (MMP-7 (Matrilysin)) | SMILES |
| --- | --- | --- | --- | --- | --- | --- | --- | --- | --- | --- | --- | --- | --- | --- |
|  | 13 nM |  | 4.2 nM | 60 nM |  | 5 nM |  | 19 nM |  |  | 78% | 370 nM |  | NC(=O)C(Cc1c[nH]c2ccccc12)NC(=O)C(CCCc1ccccc1)CP(=O)(O)C(Cc1ccccc1)NC(=O)c1ccc2ccccc2n1 (centres unmarked) [Compound 32] |
|  | 110 nM |  | 5 nM | 217 nM |  | 17 nM |  | 100 nM |  |  | 47% |  | 37% | NC(=O)C(Cc1c[nH]c2ccccc12)NC(=O)C(CCCc1ccccc1)CP(=O)(O)C(Cc1ccccc1)NC(=O)c1cc2cc(Cl)cc(Cl)c2oc1=O (centres unmarked) [Compound 33] |
|  | 22 nM |  | 6 nM | 53 nM |  | 7 nM |  | 40 nM |  |  | 20% |  | 32% | CC(C)CC(NC(=O)OCc1ccccc1)C(=O)NC(Cc1ccccc1)P(=O)(O)CC(CCCc1ccccc1)C(=O)NC(Cc1c[nH]c2ccccc12)C(N)=O (centres unmarked) [Compound 35] |
